Key:
pigweed = assay: Test B pre/postemergence pigweed; format: in vivo, Amaranthus retroflexus
In short: (§1)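 Response is a visual 0-to-10 score relative to untreated plants, where 0 means no effect and 10 means complete control, taken twelve to sixteen days after application. Treatments went onto soil at planting and onto foliage of 1- to 4-leaf plants, using a surfactant-containing non-phytotoxic solvent.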

blackgrass = assay: Test B pre/postemergence blackgrass; format: in vivo, Alopecurus myosuroides
In short: as §1

velvetleaf = assay: Test B pre/postemergence velvetleaf; format: in vivo, Abutilon theophrasti
In short: as §1

wild oat = assay: Test B pre/postemergence wild oat; format: in vivo, Avena fatua
In short: as §1

smallflower flatsedge = assay: Test B flood test smallflower flatsedge; format: in vivo, Cyperus difformis
In short: (§2)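 Plants were grown to the 2-leaf stage before treatment with test chemical, then held in a greenhouse for twelve to sixteen days. Injury was visually rated against untreated controls on a 0–10 scale, where 0 is no effect and 10 is complete control.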

surinam grass = assay: Test B pre/postemergence surinam grass; format: in vivo, Brachiaria decumbens
In short: as §1

morningglory = assay: Test B pre/postemergence morningglory; format: in vivo, Ipomoea hederacea
In short: as §1

wheat = assay: Test B pre/postemergence wheat; format: in vivo, Triticum aestivum
In short: as §1

bedstraw = assay: Test B pre/postemergence bedstraw; format: in vivo, Galium aparine
In short: as §1

purple nutsedge = assay: Test B pre/postemergence purple nutsedge; format: in vivo, Cyperus rotundus
In short: as §1

bamyardgrass = assay: Test B flood test barnyardgrass; format: in vivo, Echinochloa crus-galli
In short: as §2

soybean = assay: Test B pre/postemergence soybean; format: in vivo, Glycine max
In short: as §1

rape = assay: Test B pre/postemergence rape; format: in vivo, Brassica napus
In short: as §1

giant foxtail = assay: Test B pre/postemergence giant foxtail; format: in vivo, Setaria faberii
In short: as §1

cocklebur = assay: Test B pre/postemergence cocklebur; format: in vivo, Xanthium strumarium
In short: as §1

duck salad = assay: Test B flood test duck salad; format: in vivo, Heteranthera limosa
In short: as §2

[1] = Postemergence, Rate 62 g/ha, scale 0 to 10, 0 is no effect, 10 is complete control
[2] = Postemergence, Rate 125 g/ha, scale of 0 to 10 where 0 is no effect and 10 is complete control
[3] = Postemergence, Rate 250 g/ha, scale of 0 to 10, 0 is no effect, 10 is complete control
[4] = Postemergence, Rate 500 g/ha, scale of 0 to 10 where 0 is no effect and 10 is complete control
[5] = Preemergence, Rate 62 g/ha, scale 0 to 10 (0 no effect, 10 complete control)
[6] = Preemergence, Rate 125 g/ha, scale of 0 to 10 where 0 is no effect and 10 is complete control
[7] = Preemergence, Rate 250 g/ha, scale 0 to 10 (0 no effect, 10 complete control)
[8] = Preemergence, Rate 500 g/ha, scale of 0 to 10 where 0 is no effect and 10 is complete control
[9] = Rate 62 g/ha, flood test species, Pre-emergence, visual evaluation after twelve to sixteen days
[10] = Rate 125 g/ha, under heading Pre-emergence, flood test species, visual evaluation after twelve to sixteen days
[11] = Rate 250 g/ha, Pre-emergence (flood test species), scale 0 to 10, 0 is no effect, 10 is complete control
[12] = Rate 500 g/ha, Pre-emergence section of Table B, 0 to 10 scale (0 no effect, 10 complete control)

CCOC(=O)CC(C(=O)OCC)n1c(=O)on(C(=O)N(c2ccc(F)cc2)C(C)C)c1=O (centres unmarked) [Compound 615]
Plant response rating, Redroot pigweed (pigweed; [1]): 0 | Plant response rating, Redroot pigweed (pigweed; [2]): 0 | Redroot pigweed plant response rating (pigweed; [3]): 0 | Plant response rating, Redroot pigweed (pigweed; [4]): 0 | Redroot pigweed plant response rating (pigweed; [5]): 0 | Redroot pigweed plant response rating (pigweed; [6]): 0 | Plant response rating, Redroot pigweed (pigweed; [7]): 0 | Plant response rating, Redroot pigweed (pigweed; [8]): 4 | Plant response rating, Blackgrass (blackgrass; [1]): 0 | Plant response rating, Blackgrass (blackgrass; [2]): 0 | Blackgrass plant response rating (blackgrass; [3]): 0 | Plant response rating, Blackgrass (blackgrass; [4]): 0 | Blackgrass plant response rating (blackgrass; [5]): 0 | Blackgrass plant response rating (blackgrass; [6]): 0 | Plant response rating, Blackgrass (blackgrass; [7]): 0 | Blackgrass plant response rating (blackgrass; [8]): 4 | Plant response rating, Velvetleaf (velvetleaf; [1]): 0 | Plant response rating, Velvetleaf (velvetleaf; [2]): 0 | Velvetleaf plant response rating (velvetleaf; [3]): 0 | Plant response rating, Velvetleaf (velvetleaf; [4]): 0 | Velvetleaf plant response rating (velvetleaf; [5]): 0 | Velvetleaf plant response rating (velvetleaf; [6]): 0 | Plant response rating, Velvetleaf (velvetleaf; [7]): 0 | Plant response rating, Velvetleaf (velvetleaf; [8]): 0 | Plant response rating, Wild oats (wild oat; [1]): 0 | Plant response rating, Wild oats (wild oat; [2]): 0 | Wild oats plant response rating (wild oat; [3]): 0 | Plant response rating, Wild oats (wild oat; [4]): 0 | Wild oats plant response rating (wild oat; [5]): 0 | Wild oats plant response rating (wild oat; [6]): 0 | Plant response rating, Wild oats (wild oat; [7]): 0 | Plant response rating, Wild oats (wild oat; [8]): 0 | Plant response rating, S. Flatsedge (0 to 10 scale, 0 is no effect, 10 is complete control) (smallflower flatsedge; [9]): 0 | S. Flatsedge plant response rating (0 to 10 scale, 0 is no effect, 10 is complete control) (smallflower flatsedge; [10]): 0 | S. Flatsedge plant response rating (smallflower flatsedge; [11]): 0 | S. Flatsedge plant response rating (smallflower flatsedge; [12]): 0 | Plant response rating, B. signalgrass (surinam grass; [1]): 0 | Plant response rating, B. signalgrass (surinam grass; [2]): 0 | B. signalgrass plant response rating (surinam grass; [3]): 0 | Plant response rating, B. signalgrass (surinam grass; [4]): 0 | B. signalgrass plant response rating (surinam grass; [5]): 0 | B. signalgrass plant response rating (surinam grass; [6]): 0 | Plant response rating, B. signalgrass (surinam grass; [7]): 0 | B. signalgrass plant response rating (surinam grass; [8]): 0 | Plant response rating, Morningglory (morningglory; [1]): 0 | Plant response rating, Morningglory (morningglory; [2]): 1 | Morningglory plant response rating (morningglory; [3]): 1 | Plant response rating, Morningglory (morningglory; [4]): 1 | Morningglory plant response rating (morningglory; [5]): 0 | Morningglory plant response rating (morningglory; [6]): 0 | Plant response rating, Morningglory (morningglory; [7]): 0 | Plant response rating, Morningglory (morningglory; [8]): 0 | Plant response rating, Wheat (wheat; [1]): 0 | Plant response rating, Wheat (wheat; [2]): 0 | Wheat plant response rating (wheat; [3]): 0 | Plant response rating, Wheat (wheat; [4]): 0 | Wheat plant response rating (wheat; [5]): 0 | Wheat plant response rating (wheat; [6]): 0 | Plant response rating, Wheat (wheat; [7]): 0 | Plant response rating, Wheat (wheat; [8]): 0 | Plant response rating, Bedstraw (bedstraw; [1]): 0 | Plant response rating, Bedstraw (bedstraw; [2]): 0 | Bedstraw plant response rating (bedstraw; [5]): 0 | Bedstraw plant response rating (bedstraw; [6]): 0 | Plant response rating, Bedstraw (bedstraw; [7]): 0 | Bedstraw plant response rating (bedstraw; [8]): 0 | Plant response rating, Nutsedge (purple nutsedge; [1]): 0 | Plant response rating, Nutsedge (purple nutsedge; [2]): 0 | Nutsedge plant response rating (purple nutsedge; [3]): 0 | Nutsedge plant response rating (purple nutsedge; [5]): 0 | Nutsedge plant response rating (purple nutsedge; [6]): 0 | Plant response rating, Nutsedge (purple nutsedge; [7]): 0 | Plant response rating, Nutsedge (purple nutsedge; [8]): 0 | Plant response rating, Barnyardgrass (0 to 10 scale, 0 is no effect, 10 is complete control) (bamyardgrass; [9]): 0 | Barnyardgrass plant response rating (0 to 10 scale, 0 is no effect, 10 is complete control) (bamyardgrass; [10]): 0 | Barnyardgrass plant response rating (bamyardgrass; [11]): 0 | Barnyardgrass plant response rating (bamyardgrass; [12]): 0 | Plant response rating, Soybean (soybean; [1]): 1 | Plant response rating, Soybean (soybean; [2]): 1 | Soybean plant response rating (soybean; [3]): 3 | Plant response rating, Soybean (soybean; [4]): 3 | Soybean plant response rating (soybean; [5]): 0 | Soybean plant response rating (soybean; [6]): 0 | Plant response rating, Soybean (soybean; [7]): 0 | Plant response rating, Soybean (soybean; [8]): 0 | Plant response rating, Rape (rape; [1]): 0 | Plant response rating, Rape (rape; [2]): 0 | Rape plant response rating (rape; [3]): 0 | Plant response rating, Rape (rape; [4]): 0 | Rape plant response rating (rape; [5]): 0 | Rape plant response rating (rape; [6]): 0 | Plant response rating, Rape (rape; [7]): 0 | Plant response rating, Rape (rape; [8]): 0 | Plant response rating, Giant foxtail (giant foxtail; [1]): 0 | Plant response rating, Giant foxtail (giant foxtail; [2]): 0 | Giant foxtail plant response rating (giant foxtail; [3]): 6 | Plant response rating, Giant foxtail (giant foxtail; [4]): 6 | Giant foxtail plant response rating (giant foxtail; [5]): 0 | Giant foxtail plant response rating (giant foxtail; [6]): 0 | Plant response rating, Giant foxtail (giant foxtail; [7]): 0 | Plant response rating, Giant foxtail (giant foxtail; [8]): 7 | Plant response rating, Cocklebur (cocklebur; [1]): 0 | Plant response rating, Cocklebur (cocklebur; [2]): 0 | Cocklebur plant response rating (cocklebur; [3]): 0 | Plant response rating, Cocklebur (cocklebur; [4]): 0 | Cocklebur plant response rating (cocklebur; [5]): 0 | Cocklebur plant response rating (cocklebur; [6]): 0 | Plant response rating, Cocklebur (cocklebur; [7]): 0 | Plant response rating, Cocklebur (cocklebur; [8]): 0 | Plant response rating, Ducksalad (0 to 10 scale, 0 is no effect, 10 is complete control) (duck salad; [9]): 0 | Ducksalad plant response rating (0 to 10 scale, 0 is no effect, 10 is complete control) (duck salad; [10]): 0 | Ducksalad plant response rating (duck salad; [11]): 0 | Ducksalad plant response rating (duck salad; [12]): 0

Reference: patent publication US6737383B1, “Herbicidal oxadiazolidines” (priority 1999, dated 2004)
